Measurements as given in ChEMBL document CHEMBL1201862, “PubChem BioAssay data set” (2004).
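Each compound was tested at five concentrations against cells in 96-well plates for 48 hours. GI50 = concentration required for 50% inhibition of growth.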 Calls of active or inactive are those of the source. No stated cut-off is given here; in the data, active = GI50 up to about 1.1 µM and inactive = higher.

How the values were obtained:
Assay in all cases: NCI tumour cell line growth inhibition, 48 h
A498 = tested on: A498
SN12C = tested on: SN12C
U-251 = tested on: U-251
SF-268 = tested on: SF-268
IGROV-1 = tested on: IGROV-1
DLD-1 = tested on: DLD-1
SF-295 = tested on: SF-295
M14 = tested on: M14
HCC 2998 = tested on: HCC 2998
K562 = tested on: K562
UO-31 = tested on: UO-31
OVCAR-5 = tested on: OVCAR-5
TK-10 = tested on: TK-10
A549 = tested on: A549
HL-60 = tested on: HL-60
SNB-78 = tested on: SNB-78
SK-MEL-2 = tested on: SK-MEL-2
SK-OV-3 = tested on: SK-OV-3

Measured: GI50

COc1ccccc1/N=N/c1c(-c2ccccc2)nn(C(=O)CC(=O)Nc2cccc(C)c2)c1-c1ccccc1
inactive: A498 40 µM | SN12C 20.8 µM | U-251 20 µM | SF-268 39.4 µM | IGROV-1 24.7 µM | DLD-1 25.8 µM | SF-295 28.2 µM | M14 14.7 µM | HCC 2998 42 µM | K562 15.7 µM | UO-31 19.7 µM | OVCAR-5 36.3 µM | TK-10 72.1 µM | A549 26.5 µM | HL-60 15.3 µM | SNB-78 61.8 µM

CCOC(=O)[C-]([N+]#N)[Si](C)(C)C
inactive: A498 > 100 µM | SN12C > 100 µM | SK-MEL-2 > 100 µM | U-251 24.2 µM | SF-268 21.6 µM | IGROV-1 > 100 µM | DLD-1 > 100 µM | SF-295 > 100 µM | HCC 2998 > 100 µM | OVCAR-5 > 100 µM | TK-10 > 100 µM | A549 > 100 µM | SNB-78 > 100 µM

CCOC12OC3=C(CC1CC1=C(CCC1=O)O2)C(=O)CC3 (configuration not stated)
inactive: A498 > 100 µM | SN12C > 100 µM | SK-OV-3 > 100 µM | SK-MEL-2 > 100 µM | U-251 > 100 µM | SF-268 > 100 µM | IGROV-1 > 100 µM | DLD-1 > 100 µM | SF-295 > 100 µM | M14 > 100 µM | K562 > 100 µM | UO-31 > 100 µM | OVCAR-5 > 100 µM | TK-10 > 100 µM | A549 > 100 µM | HL-60 > 100 µM | SNB-78 > 100 µM

O=C1C2C3C=C4c5ccccc5N(c5ccccc5)C4(C2C(=O)N1c1ccc(Cl)cc1)[C@H]1C(=O)N(c2ccc(Cl)cc2)C(=O)[C@@H]31 (some centres not stated)
inactive: A498 > 100 µM | SN12C > 100 µM | SK-OV-3 > 100 µM | SK-MEL-2 > 100 µM | U-251 > 100 µM | IGROV-1 > 100 µM | DLD-1 > 100 µM | SF-295 > 100 µM | M14 35.7 µM | K562 > 100 µM | UO-31 > 100 µM | OVCAR-5 > 100 µM | TK-10 > 100 µM | A549 > 100 µM | HL-60 > 100 µM | SNB-78 > 100 µM

COc1cc(CCc2cccnc2)cc(OC)c1OC
inactive: A498 > 100 µM | SN12C > 100 µM | U-251 > 100 µM | SF-268 > 100 µM | IGROV-1 > 100 µM | DLD-1 > 100 µM | SF-295 > 100 µM | M14 > 100 µM | K562 > 100 µM | UO-31 > 100 µM | OVCAR-5 38.5 µM | TK-10 > 100 µM | A549 > 100 µM | HL-60 > 100 µM | SNB-78 > 100 µM
